Test results taken from ChEMBL document CHEMBL1201862, “PubChem BioAssay data set” (2004).
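Step 1: Grow cells in 96-well plates. Step 2: Expose to compound for 48 hours at 5 concentrations. Step 3: Interpolate endpoints linearly; if unreached, use highest concentration. GI50 = concentration required for 50% inhibition of growth.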 The source made the active and inactive calls. Cut-off read from the data, not from the text of the source: active = GI50 up to about 1.1 µM and inactive = higher.

Experiments:
Assay in all cases: inhibition of tumour cell growth, NCI panel, 48 h
ACHN = test system: ACHN
SK-MEL-28 = test system: SK-MEL-28
786-0 = test system: 786-0
EKVX = test system: EKVX
TK-10 = test system: TK-10
HOP-18 = test system: HOP-18
A549 = test system: A549
LXFL 529 = test system: LXFL 529
HCC 2998 = test system: HCC 2998
OVCAR-5 = test system: OVCAR-5
Malme-3M = test system: Malme-3M
OVCAR-3 = test system: OVCAR-3
NCI-H522 = test system: NCI-H522
SK-MEL-2 = test system: SK-MEL-2
RPMI-8226 = test system: RPMI-8226
KM12 = test system: KM12
Hs-578T = test system: Hs-578T
MDA-N = test system: MDA-N
DU-145 = test system: DU-145
MDA-MB-231 = test system: MDA-MB-231

| SMILES | GI50 (ACHN) | GI50 (SK-MEL-28) | GI50 (786-0) | GI50 (EKVX) | GI50 (TK-10) | GI50 (HOP-18) | GI50 (A549) | GI50 (LXFL 529) | GI50 (HCC 2998) | GI50 (OVCAR-5) | GI50 (Malme-3M) | GI50 (OVCAR-3) | GI50 (NCI-H522) | GI50 (SK-MEL-2) | GI50 (RPMI-8226) | GI50 (KM12) | GI50 (Hs-578T) | GI50 (MDA-N) | GI50 (DU-145) | GI50 (MDA-MB-231) |
| --- | --- | --- | --- | --- | --- | --- | --- | --- | --- | --- | --- | --- | --- | --- | --- | --- | --- | --- | --- | --- |
| O=C1CCCC/C1=C\c1ccc(Cl)c(Cl)c1 | 18.3 µM (inactive) | 19.1 µM (inactive) | > 10 µM (inactive) | 45.7 µM (inactive) | 17 µM (inactive) | 18.8 µM (inactive) | 34.4 µM (inactive) | 17.1 µM (inactive) | 21.7 µM (inactive) | – | – | – | – | – | – | – | – | – | – | – |
| C/C(=N\NC(=O)C[N+](C)(C)C)c1sc(-c2cccnc2)nc1C | > 100 µM (inactive) | > 100 µM (inactive) | > 100 µM (inactive) | > 100 µM (inactive) | > 100 µM (inactive) | – | > 100 µM (inactive) | 67 µM (inactive) | > 100 µM (inactive) | > 100 µM (inactive) | > 100 µM (inactive) | > 100 µM (inactive) | 42.7 µM (inactive) | > 100 µM (inactive) | > 100 µM (inactive) | > 100 µM (inactive) | – | – | – | – |
| CN(C(=O)c1ccco1)C(=S)N1CCN(c2ccccn2)CC1 | > 100 µM (inactive) | > 100 µM (inactive) | > 100 µM (inactive) | – | > 100 µM (inactive) | > 100 µM (inactive) | > 100 µM (inactive) | > 100 µM (inactive) | – | > 100 µM (inactive) | > 100 µM (inactive) | > 100 µM (inactive) | > 100 µM (inactive) | > 100 µM (inactive) | > 100 µM (inactive) | > 100 µM (inactive) | – | – | – | – |
| COc1cccc2c1C(=O)c1c(O)c3c(c(O)c1C2=O)C[C@](O)(C(=O)CO)CC3OC1CC(N)C(OC2CCCCO2)C(C)O1 (stereo partly drawn) | – | 1.4 µM (inactive) | – | 0.916 µM (active) | – | 0.383 µM (active) | < 0.01 µM (active) | – | 0.621 µM (active) | 0.293 µM (active) | 0.0752 µM (active) | 0.828 µM (active) | 0.356 µM (active) | 1.05 µM (active) | 0.112 µM (active) | 0.375 µM (active) | – | – | – | – |
| C(=N/NC1=NCCN1)/c1c2ccccc2c(/C=N\NC2=NCCN2)c2ccccc12 | 0.221 µM (active) | 0.259 µM (active) | 0.0991 µM (active) | 0.149 µM (active) | 1.03 µM (active) | 0.168 µM (active) | 0.0369 µM (active) | – | 0.14 µM (active) | 0.239 µM (active) | 0.16 µM (active) | 0.184 µM (active) | 0.0698 µM (active) | 0.147 µM (active) | 0.0826 µM (active) | 0.0885 µM (active) | 0.06 µM (active) | 0.113 µM (active) | 0.0619 µM (active) | 6.56 µM (inactive) |
| C=CCOC(=O)c1c(C)[n+]([O-])c2cc(Cl)c(Cl)cc2[n+]1[O-] | 23.6 µM (inactive) | 16.1 µM (inactive) | 29.4 µM (inactive) | 18.8 µM (inactive) | 29.4 µM (inactive) | – | 23 µM (inactive) | – | 12.9 µM (inactive) | 30.4 µM (inactive) | 28.5 µM (inactive) | 20.1 µM (inactive) | 12.4 µM (inactive) | 13.6 µM (inactive) | 12.4 µM (inactive) | 29.7 µM (inactive) | 27.5 µM (inactive) | 20.6 µM (inactive) | 29.6 µM (inactive) | 24 µM (inactive) |
| CN1CCCS/C1=C1/SC(=S)N(c2ccccc2)C1=O | > 100 µM (inactive) | > 100 µM (inactive) | > 100 µM (inactive) | > 100 µM (inactive) | > 100 µM (inactive) | > 100 µM (inactive) | > 100 µM (inactive) | > 100 µM (inactive) | – | > 100 µM (inactive) | > 100 µM (inactive) | > 100 µM (inactive) | > 100 µM (inactive) | > 100 µM (inactive) | > 100 µM (inactive) | > 100 µM (inactive) | – | – | – | – |
| Cc1cc(Nc2ccc(S(=O)(=O)O)c3cc(S(=O)(=O)O)cc(S(=O)(=O)O)c23)c2ccccc2n1 | > 100 µM (inactive) | > 100 µM (inactive) | > 100 µM (inactive) | > 100 µM (inactive) | > 100 µM (inactive) | – | > 100 µM (inactive) | – | > 100 µM (inactive) | > 100 µM (inactive) | > 100 µM (inactive) | > 100 µM (inactive) | > 100 µM (inactive) | > 100 µM (inactive) | > 100 µM (inactive) | > 100 µM (inactive) | > 100 µM (inactive) | > 100 µM (inactive) | > 100 µM (inactive) | > 100 µM (inactive) |
| O=C1/C(=C\c2cccc(Oc3ccccc3)c2)S(=O)(=O)C(c2ccccc2)N1c1cc(Cl)ccc1Cl (stereo not drawn) | 18.8 µM (inactive) | 17.3 µM (inactive) | 16.1 µM (inactive) | 27.8 µM (inactive) | 22.3 µM (inactive) | – | 22.2 µM (inactive) | – | 21.7 µM (inactive) | 20.4 µM (inactive) | 20.1 µM (inactive) | 20.1 µM (inactive) | 18.3 µM (inactive) | 28.2 µM (inactive) | 5.94 µM (inactive) | 22.9 µM (inactive) | 33.7 µM (inactive) | 10.3 µM (inactive) | 20.9 µM (inactive) | 28.7 µM (inactive) |
